{"source": "patent US5968910A", "about": "“Compositions containing two or three inhibitors of different HIV reverse transcriptases” (priority 1994, dated 1999)", "key": {"[1]": {"tested_on": "HIV-1/II(0.1) 100-Ile", "assay": "Sensitivity of mutant HIV-1 strain in CEM cell cultures", "type": "cell-based", "conditions": "Table 5", "method_in_brief": "(§1)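 Infect CEM cells (250,000 cells per ml) with virus at 100 CCID50/ml; add infected suspension to wells holding diluted compound; incubate 4 days, 37° C.; examine for syncytia.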"}, "[2]": {"tested_on": "HIV-1/TIBO R82150 (100-Ile)", "assay": "Sensitivity of mutant HIV-1 strain in CEM cell cultures", "type": "cell-based", "conditions": "CEM cells, Table 1", "method_in_brief": "as §1"}, "[3]": {"tested_on": "HIV-1/Nev (106-Ala)", "assay": "Sensitivity of mutant HIV-1 strain in CEM cell cultures", "type": "cell-based", "conditions": "CEM cells, Table 1", "method_in_brief": "as §1"}, "[4]": {"tested_on": "HIV-1/IV(0.1) 103-Thr", "assay": "Sensitivity of mutant HIV-1 strain in CEM cell cultures", "type": "cell-based", "conditions": "Table 5", "method_in_brief": "as §1"}, "[5]": {"tested_on": "HIV-1/I(0.1) 103-Asn", "assay": "Sensitivity of mutant HIV-1 strain in CEM cell cultures", "type": "cell-based", "conditions": "Table 5", "method_in_brief": "as §1"}, "[6]": {"tested_on": "HIV-1/B 101Glu", "assay": "Sensitivity of mutant HIV-1 strain in CEM cell cultures", "type": "cell-based", "conditions": "Table 5", "method_in_brief": "as §1"}, "[7]": {"tested_on": "HIV-1/Pyr (181-Cys)", "assay": "Sensitivity of mutant HIV-1 strain in CEM cell cultures", "type": "cell-based", "conditions": "CEM cells, Table 1", "method_in_brief": "as §1"}, "[8]": {"tested_on": "HIV-1/III(0.1) 103-Asn", "assay": "Sensitivity of mutant HIV-1 strain in CEM cell cultures", "type": "cell-based", "conditions": "Table 5", "method_in_brief": "as §1"}, "[9]": {"tested_on": "HIV-1/V(0.5) 103-Asn", "assay": "Sensitivity of mutant HIV-1 strain in CEM cell cultures", "type": "cell-based", "method_in_brief": "as §1"}, "[10]": {"tested_on": "HIV-1/TSAO-m^3 T (138-Lys)", "assay": "Sensitivity of mutant HIV-1 strain in CEM cell cultures", "type": "cell-based", "conditions": "CEM cells, Table 1", "method_in_brief": "as §1"}, "[11]": {"tested_on": "HIV-1/TIBO R82913 (103-Asn)", "assay": "Sensitivity of mutant HIV-1 strain in CEM cell cultures", "type": "cell-based", "conditions": "CEM cells, Table 1", "method_in_brief": "as §1"}, "[12]": {"tested_on": "HIV-1/V(0.1) 101-Ile + 141-Glu", "assay": "Sensitivity of mutant HIV-1 strain in CEM cell cultures", "type": "cell-based", "conditions": "Table 5", "method_in_brief": "as §1"}, "[13]": {"biological_target": "HIV-1 RT (WT) (Human immunodeficiency virus type 1 group M subtype B, UniProt P03366)", "assay": "biochemical", "conditions": "IC50, anti-HIV-1 RT (WT) activity", "method_in_brief": "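Recombinant HIV-1 RT incubated 30 min at 37° C with poly(C).oligo(dG) (0.1 mM) and [³H]dGTP (2.95 μM) in Tris pH 7.8 with 5 mM MgCl2, 150 mM KCl, DTT, glutathione, Triton X-100; 5-fold compound dilutions. Acid-insoluble radioactivity counted after TCA/pyrophosphate precipitation.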"}, "[14]": {"tested_on": "HIV-1(IIIB) (WT)", "assay": "microbe, parasite or virus in culture", "type": "cell-based", "conditions": "Human immunodeficiency virus 1, IIIB, CCRF-CEM", "method_in_brief": "as §1"}}, "note": "Read-outs that look alike come from different tables or passages of the source.", "data": [{"smiles": "Cc1cn([C@@H]2O[C@H](CO[Si](C)(C)C(C)(C)C)[C@@]3(OS(=O)(=O)C=C3N)[C@H]2O[Si](C)(C)C(C)(C)C)c(=O)n(C)c1=O", "note": "[TSAO-m^3 T]", "values": [{"measurement": "EC50", "setting": "[1]", "result": 0.37, "unit": "µg/mL"}, {"measurement": "50% Effective Concentration", "setting": "[2]", "result": 0.05, "unit": "µg/mL"}, {"measurement": "50% Effective Concentration", "setting": "[3]", "result": "> 50", "unit": "µg/mL"}, {"measurement": "EC50", "setting": "[4]", "result": 0.30, "unit": "µg/mL"}, {"measurement": "EC50", "setting": "[5]", "result": 0.22, "unit": "µg/mL"}, {"measurement": "EC50", "setting": "[6]", "result": "> 2.5", "unit": "µg/mL"}, {"measurement": "50% Effective Concentration", "setting": "[7]", "result": 3.0, "unit": "µg/mL"}, {"measurement": "EC50", "setting": "[8]", "result": 0.20, "unit": "µg/mL"}, {"measurement": "EC50", "setting": "[9]; Table 5", "result": 0.30, "unit": "µg/mL"}, {"measurement": "fold more inhibitory to HIV-1/III(0.1) than to HIV-1/V(0.5)", "setting": "[9]; both RT/103-Asn mutants", "result": "equally inhibitory to both virus mutants"}, {"measurement": "50% Effective Concentration", "setting": "[10]", "result": "> 50", "unit": "µg/mL"}, {"measurement": "50% Effective Concentration", "setting": "[11]", "result": 0.15, "unit": "µg/mL"}, {"measurement": "EC50", "setting": "[12]", "result": 0.06, "unit": "µg/mL"}, {"measurement": "IC50", "setting": "[13]", "result": 4.6, "unit": "µM"}, {"measurement": "EC50", "setting": "[14]; CEM cells, Table 1, read-out: 50% Effective Concentration", "result": 0.03, "unit": "µg/mL"}, {"measurement": "EC50", "setting": "[14]; HIV-1 (III8), Table 5, read-out: EC50", "result": 0.03, "unit": "µg/mL"}]}]}
